Assays:
Experiment in all cases: Kinase selectivity profiling
Type in all cases: biochemical
IGF-1R = IGF-1R (Homo sapiens, UniProt P08069); details: 1 µM, assay duplicates
Description: (§1) [20] Kinase selectivity profiling for compounds 7a, 7d, 14d and 14g was carried out at the International Centre for Protein Kinase Profiling, Division of Signal Transduction Therapy, University of Dundee.
(§2) Table S1: Kinase selectivity profiling of compounds 7a and 7d in a 102-kinase panel screened at a concentration of 1 µM.
(§3) Table S2: Kinase selectivity profiling of compounds 14d and 14g in a 105-kinase panel screened at a concentration of 1 µM.

CHK1 = CHK1 (Homo sapiens, UniProt O14757); details: 1 µM, assay duplicates
Description: as §1, §2, §3

GCK = GCK (Homo sapiens, UniProt Q12851); details: 1 µM, assay duplicates
Description: as §1, §2, §3

EF2K = EF2K (Homo sapiens, UniProt O00418); details: 1 µM, assay duplicates
Description: as §1, §2, §3

HIPK2 = HIPK2 (Homo sapiens, UniProt Q9H2X6); details: 1 µM, assay duplicates
Description: as §1, §2, §3

MARK1 = MARK1 (Homo sapiens, UniProt Q9P0L2); details: 1 µM, assay duplicates
Description: as §1, §2, §3

NEK6 = NEK6 (Homo sapiens, UniProt Q9HC98); details: 1 µM, assay duplicates
Description: as §1, §2, §3

HIPK1 = HIPK1 (Homo sapiens, UniProt Q86Z02); details: 1 µM, assay duplicates
Description: as §1, §2, §3

CSK = CSK (Homo sapiens, UniProt P41240); details: 1 µM, assay duplicates
Description: as §1, §2, §3

RIPK2 = RIPK2 (Homo sapiens, UniProt O43353); details: 1 µM, assay duplicates
Description: as §1, §2, §3

Src = Src (Homo sapiens, UniProt P12931); details: 1 µM, assay duplicates
Description: as §1, §2, §3

PKBb = PKBb (Homo sapiens, UniProt P31751); details: 1 µM, assay duplicates
Description: as §1, §2, §3

PKA = PKA (Homo sapiens, UniProt P17612); details: 1 µM, assay duplicates
Description: as §1, §2, §3

CHK2 = CHK2 (Homo sapiens, UniProt O96017); details: 1 µM, assay duplicates
Description: as §1, §2, §3

AMPK = details: 1 µM, assay duplicates
Description: as §1, §2, §3

YES1 = YES1 (Homo sapiens, UniProt P07947); details: 1 µM, assay duplicates
Description: as §1, §2, §3

MLK1 = MLK1 (Homo sapiens, UniProt P80192); details: for MLK1 inhibition: 1 μM; for MLK1 % activity remaining: 1 µM, assay duplicates
Chain of MLK1 (P80192 whole entry): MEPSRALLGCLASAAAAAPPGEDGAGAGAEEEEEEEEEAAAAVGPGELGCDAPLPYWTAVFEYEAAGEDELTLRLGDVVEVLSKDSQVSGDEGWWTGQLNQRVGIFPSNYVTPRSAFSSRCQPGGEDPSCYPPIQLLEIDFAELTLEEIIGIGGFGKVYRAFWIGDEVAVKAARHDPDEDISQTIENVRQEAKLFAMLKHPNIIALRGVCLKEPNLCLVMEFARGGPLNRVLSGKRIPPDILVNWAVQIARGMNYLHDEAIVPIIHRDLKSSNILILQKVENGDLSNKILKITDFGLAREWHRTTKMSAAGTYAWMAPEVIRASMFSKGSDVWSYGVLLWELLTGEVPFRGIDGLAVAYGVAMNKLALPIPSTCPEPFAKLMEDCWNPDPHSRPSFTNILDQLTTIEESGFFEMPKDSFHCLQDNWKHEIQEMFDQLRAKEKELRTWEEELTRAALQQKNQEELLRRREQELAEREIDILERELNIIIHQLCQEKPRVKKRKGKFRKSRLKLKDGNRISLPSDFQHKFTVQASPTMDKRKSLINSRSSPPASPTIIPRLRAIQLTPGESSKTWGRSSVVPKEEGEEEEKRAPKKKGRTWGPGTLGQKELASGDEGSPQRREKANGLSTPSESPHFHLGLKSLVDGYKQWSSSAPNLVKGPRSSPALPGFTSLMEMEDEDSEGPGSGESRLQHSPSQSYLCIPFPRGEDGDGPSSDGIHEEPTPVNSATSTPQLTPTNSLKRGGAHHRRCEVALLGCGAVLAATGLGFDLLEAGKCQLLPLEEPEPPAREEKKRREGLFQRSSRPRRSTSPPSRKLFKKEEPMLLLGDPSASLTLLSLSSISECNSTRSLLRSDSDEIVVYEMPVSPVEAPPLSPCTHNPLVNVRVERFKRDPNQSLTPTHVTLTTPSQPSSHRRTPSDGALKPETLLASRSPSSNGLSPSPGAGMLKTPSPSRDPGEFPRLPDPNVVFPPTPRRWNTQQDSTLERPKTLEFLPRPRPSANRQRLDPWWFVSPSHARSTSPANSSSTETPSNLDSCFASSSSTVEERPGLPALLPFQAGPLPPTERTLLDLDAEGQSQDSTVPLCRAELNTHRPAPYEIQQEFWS
Description: as §1, §2, §3

MAPKAP-K2 = MAPKAP-K2 (Homo sapiens, UniProt P49137); details: 1 µM, assay duplicates
Chain of MAPKAP-K2 (P49137 whole entry): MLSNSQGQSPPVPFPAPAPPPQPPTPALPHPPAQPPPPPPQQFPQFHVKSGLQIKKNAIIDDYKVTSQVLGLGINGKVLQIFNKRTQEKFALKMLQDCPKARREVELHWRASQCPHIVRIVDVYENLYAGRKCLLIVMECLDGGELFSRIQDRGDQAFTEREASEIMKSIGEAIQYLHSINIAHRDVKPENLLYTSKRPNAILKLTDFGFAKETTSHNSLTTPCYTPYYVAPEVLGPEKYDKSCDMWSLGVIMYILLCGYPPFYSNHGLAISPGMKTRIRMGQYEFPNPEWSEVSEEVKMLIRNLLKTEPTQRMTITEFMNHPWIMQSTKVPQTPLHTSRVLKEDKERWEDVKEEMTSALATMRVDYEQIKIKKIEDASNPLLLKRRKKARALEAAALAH
Description: as §1, §2, §3

S6K1 = S6K1 (Homo sapiens, UniProt P23443); details: 1 µM, assay duplicates
Description: as §1, §2, §3

MST2 = MST2 (Homo sapiens, UniProt Q13188); details: 1 µM, assay duplicates
Description: as §1, §2, §3

NUAK1 = NUAK1 (Homo sapiens, UniProt O60285); details: 1 µM, assay duplicates
Description: as §1, §2, §3

SmMLCK = SmMLCK (Homo sapiens, UniProt Q15746); details: 1 µM, assay duplicates
Description: as §1, §2, §3

PAK5 = PAK5 (Homo sapiens, UniProt Q9P286); details: 1 µM, assay duplicates
Description: as §1, §2, §3

JAK2 = JAK2 (Homo sapiens, UniProt O60674); details: for JAK2 inhibition: 1 μM; for JAK2 % activity remaining: 1 µM, assay duplicates
Chain of JAK2 (O60674 whole entry): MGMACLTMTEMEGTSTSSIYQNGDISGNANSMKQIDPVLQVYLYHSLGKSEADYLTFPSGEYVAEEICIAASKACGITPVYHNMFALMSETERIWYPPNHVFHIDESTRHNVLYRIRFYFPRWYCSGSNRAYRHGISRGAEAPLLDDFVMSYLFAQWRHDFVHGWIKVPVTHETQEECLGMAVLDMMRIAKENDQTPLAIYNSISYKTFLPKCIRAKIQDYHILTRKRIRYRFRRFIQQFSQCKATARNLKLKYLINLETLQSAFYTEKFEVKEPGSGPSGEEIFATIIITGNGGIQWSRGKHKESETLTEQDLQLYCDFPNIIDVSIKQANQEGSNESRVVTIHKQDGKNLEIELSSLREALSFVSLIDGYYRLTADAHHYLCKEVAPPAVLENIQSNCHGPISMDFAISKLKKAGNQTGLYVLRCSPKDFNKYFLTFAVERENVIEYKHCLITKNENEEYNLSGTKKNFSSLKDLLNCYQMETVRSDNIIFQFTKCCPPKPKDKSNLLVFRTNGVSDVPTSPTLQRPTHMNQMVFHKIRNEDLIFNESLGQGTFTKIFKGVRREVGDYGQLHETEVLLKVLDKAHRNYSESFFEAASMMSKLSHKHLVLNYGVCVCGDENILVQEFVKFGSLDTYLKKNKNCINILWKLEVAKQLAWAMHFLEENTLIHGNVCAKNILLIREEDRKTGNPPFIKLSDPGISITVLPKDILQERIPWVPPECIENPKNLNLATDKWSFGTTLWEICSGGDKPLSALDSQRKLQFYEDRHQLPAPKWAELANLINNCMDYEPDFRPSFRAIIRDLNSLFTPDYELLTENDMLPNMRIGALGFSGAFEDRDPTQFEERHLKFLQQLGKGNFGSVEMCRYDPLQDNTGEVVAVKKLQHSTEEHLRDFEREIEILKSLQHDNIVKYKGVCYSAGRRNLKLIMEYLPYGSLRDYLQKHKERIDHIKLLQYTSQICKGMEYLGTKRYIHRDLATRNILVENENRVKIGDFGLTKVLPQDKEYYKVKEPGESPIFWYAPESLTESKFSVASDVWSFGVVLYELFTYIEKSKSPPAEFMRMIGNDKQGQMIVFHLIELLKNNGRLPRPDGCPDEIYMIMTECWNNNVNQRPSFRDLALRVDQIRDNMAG
Description: as §1, §2, §3

PIM2 = PIM2 (Homo sapiens, UniProt Q9P1W9); details: 1 µM, assay duplicates
Description: as §1, §2, §3

PRK2 = PRK2 (Homo sapiens, UniProt Q16513); details: 1 µM, assay duplicates
Description: as §1, §2, §3

BRSK2 = BRSK2 (Homo sapiens, UniProt Q8IWQ3); details: 1 µM, assay duplicates
Chain of BRSK2 (Q8IWQ3 whole entry): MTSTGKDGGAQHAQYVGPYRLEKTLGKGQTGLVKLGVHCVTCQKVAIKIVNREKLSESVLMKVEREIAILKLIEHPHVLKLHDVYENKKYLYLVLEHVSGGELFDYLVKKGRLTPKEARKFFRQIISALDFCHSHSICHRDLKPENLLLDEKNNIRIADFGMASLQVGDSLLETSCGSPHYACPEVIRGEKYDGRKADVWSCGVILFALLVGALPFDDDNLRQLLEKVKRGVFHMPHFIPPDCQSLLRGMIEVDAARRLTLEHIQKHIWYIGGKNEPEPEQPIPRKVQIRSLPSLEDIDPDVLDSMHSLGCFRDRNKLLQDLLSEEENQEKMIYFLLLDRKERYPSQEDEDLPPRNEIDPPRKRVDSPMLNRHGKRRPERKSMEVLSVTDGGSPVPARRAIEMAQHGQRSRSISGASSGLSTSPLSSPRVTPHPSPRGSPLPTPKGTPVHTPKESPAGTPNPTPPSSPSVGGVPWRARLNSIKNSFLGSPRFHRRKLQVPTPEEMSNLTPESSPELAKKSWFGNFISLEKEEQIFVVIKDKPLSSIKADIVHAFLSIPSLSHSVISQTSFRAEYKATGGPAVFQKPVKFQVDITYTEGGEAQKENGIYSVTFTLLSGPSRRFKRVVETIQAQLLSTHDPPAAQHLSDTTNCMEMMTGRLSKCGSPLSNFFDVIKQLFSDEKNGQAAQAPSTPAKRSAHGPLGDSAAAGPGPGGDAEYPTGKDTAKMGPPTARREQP
Description: as §1, §2, §3

GSK3b = GSK3b (Homo sapiens, UniProt P49841); details: for GSK3b % activity remaining: 1 µM, assay duplicates
Chain of GSK3b (P49841 whole entry): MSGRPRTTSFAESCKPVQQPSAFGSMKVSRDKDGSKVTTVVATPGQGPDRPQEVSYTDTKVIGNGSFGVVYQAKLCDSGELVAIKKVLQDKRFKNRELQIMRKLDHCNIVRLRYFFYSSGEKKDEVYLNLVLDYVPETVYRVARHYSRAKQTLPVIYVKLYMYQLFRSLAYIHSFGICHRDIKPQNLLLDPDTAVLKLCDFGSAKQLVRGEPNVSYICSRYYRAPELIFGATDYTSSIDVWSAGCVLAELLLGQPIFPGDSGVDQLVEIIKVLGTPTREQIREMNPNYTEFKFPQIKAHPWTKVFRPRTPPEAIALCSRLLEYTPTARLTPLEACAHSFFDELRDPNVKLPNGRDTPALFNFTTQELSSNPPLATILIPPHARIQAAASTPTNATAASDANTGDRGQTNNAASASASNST
Description: as §1, §2, §3

IKKe = IKKe (Homo sapiens, UniProt Q14164); details: 1 µM, assay duplicates
Description: as §1, §2, §3

IRR = IRR (Homo sapiens, UniProt P14616); details: 1 µM, assay duplicates
Chain of IRR (P14616 27-1297): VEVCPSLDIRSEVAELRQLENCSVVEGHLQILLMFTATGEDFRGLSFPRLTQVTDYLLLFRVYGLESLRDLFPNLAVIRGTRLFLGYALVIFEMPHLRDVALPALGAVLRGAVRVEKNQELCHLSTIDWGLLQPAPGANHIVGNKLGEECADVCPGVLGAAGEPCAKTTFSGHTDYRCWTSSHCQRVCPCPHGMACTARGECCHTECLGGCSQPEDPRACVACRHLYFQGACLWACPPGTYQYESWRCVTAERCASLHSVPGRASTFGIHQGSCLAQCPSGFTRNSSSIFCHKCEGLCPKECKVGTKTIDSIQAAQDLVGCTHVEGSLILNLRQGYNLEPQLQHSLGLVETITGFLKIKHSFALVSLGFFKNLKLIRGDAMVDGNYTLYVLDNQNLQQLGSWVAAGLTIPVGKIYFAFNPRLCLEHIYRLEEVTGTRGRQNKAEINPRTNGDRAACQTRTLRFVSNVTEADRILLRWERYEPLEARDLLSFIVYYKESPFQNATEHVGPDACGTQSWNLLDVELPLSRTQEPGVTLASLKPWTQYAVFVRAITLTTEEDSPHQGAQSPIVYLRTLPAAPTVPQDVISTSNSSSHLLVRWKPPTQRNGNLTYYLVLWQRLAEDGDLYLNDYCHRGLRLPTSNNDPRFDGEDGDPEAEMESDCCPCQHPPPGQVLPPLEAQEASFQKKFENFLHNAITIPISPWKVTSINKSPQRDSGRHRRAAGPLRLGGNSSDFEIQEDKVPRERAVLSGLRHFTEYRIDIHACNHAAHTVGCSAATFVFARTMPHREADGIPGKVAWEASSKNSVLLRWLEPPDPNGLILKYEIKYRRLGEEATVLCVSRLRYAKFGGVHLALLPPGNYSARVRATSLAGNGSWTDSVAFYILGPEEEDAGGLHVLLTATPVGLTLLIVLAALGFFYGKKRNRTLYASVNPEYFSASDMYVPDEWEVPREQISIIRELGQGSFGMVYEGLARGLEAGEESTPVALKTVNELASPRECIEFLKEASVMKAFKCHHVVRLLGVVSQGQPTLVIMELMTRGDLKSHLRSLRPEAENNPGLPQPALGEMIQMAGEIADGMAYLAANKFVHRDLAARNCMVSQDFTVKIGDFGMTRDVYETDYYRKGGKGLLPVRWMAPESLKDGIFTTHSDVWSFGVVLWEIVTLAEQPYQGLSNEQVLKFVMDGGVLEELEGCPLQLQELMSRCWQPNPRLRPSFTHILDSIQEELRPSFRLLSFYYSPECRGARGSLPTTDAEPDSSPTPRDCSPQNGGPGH
Description: as §1, §2, §3

p38g MAPK = p38g MAPK (Homo sapiens, UniProt P53778); details: 1 µM, assay duplicates
Description: as §1, §2, §3

TAK1 = TAK1 (Homo sapiens, UniProt O43318); details: 1 µM, assay duplicates
Description: as §1, §2, §3

p38a MAPK = p38a MAPK (Homo sapiens, UniProt Q16539); details: 1 µM, assay duplicates
Description: as §1, §2, §3

FGF-R1 = FGF-R1 (Homo sapiens, UniProt P11362); details: 1 µM, assay duplicates
Description: as §1, §2, §3

MEKK1 = MEKK1 (Homo sapiens, UniProt Q13233); details: 1 µM, assay duplicates
Description: as §1, §2, §3

PKBa = PKBa (Homo sapiens, UniProt P31749); details: 1 µM, assay duplicates
Description: as §1, §2, §3

MARK4 = MARK4 (Homo sapiens, UniProt Q96L34); details: 1 µM, assay duplicates
Description: as §1, §2, §3

PKD1 = PKD1 (Homo sapiens, UniProt Q15139); details: 1 µM, assay duplicates
Description: as §1, §2, §3

DYRK3 = DYRK3 (Homo sapiens, UniProt O43781); details: 1 µM, assay duplicates
Description: as §1, §2, §3

JNK2 = JNK2 (Homo sapiens, UniProt P45984); details: 1 µM, assay duplicates
Description: as §1, §2, §3

Compound: Cc1cc(Cn2cc(-c3c(Cl)cnc4[nH]c(-c5cn(C)nc5C)nc34)cn2)no1 [Compound 14d]
- IGF-1R % activity remaining (IGF-1R): 5%
- CHK1 % activity remaining (CHK1): 52%
- GCK % activity remaining (GCK): 40%
- EF2K % activity remaining (EF2K): 102%
- HIPK2 % activity remaining (HIPK2): 11%
- MARK1 % activity remaining (MARK1): 38%
- NEK6 % activity remaining (NEK6): 116%
- HIPK1 % activity remaining (HIPK1): 22%
- CSK % activity remaining (CSK): 83%
- RIPK2 % activity remaining (RIPK2): 49%
- Src % activity remaining (Src): 8%
- PKBb % activity remaining (PKBb): 94%
- PKA % activity remaining (PKA): 63%
- CHK2 % activity remaining (CHK2): 32%
- AMPK % activity remaining (AMPK): 34%
- YES1 % activity remaining (YES1): 18%
- MLK1 inhibition (MLK1): ≥ 80%
- MLK1 % activity remaining (MLK1): 8%
- MAPKAP-K2 % activity remaining (MAPKAP-K2): 100%
- S6K1 % activity remaining (S6K1): 12%
- MST2 % activity remaining (MST2): 80%
- NUAK1 % activity remaining (NUAK1): 8%
- SmMLCK % activity remaining (SmMLCK): 43%
- PAK5 % activity remaining (PAK5): 41%
- JAK2 inhibition (JAK2): ≥ 80%
- JAK2 % activity remaining (JAK2): 2%
- PIM2 % activity remaining (PIM2): 91%
- PRK2 % activity remaining (PRK2): 43%
- BRSK2 % activity remaining (BRSK2): 72%
- GSK3b % activity remaining (GSK3b): 47%
- IKKe % activity remaining (IKKe): 3%
- IRR % activity remaining (IRR): 24%
- p38g MAPK % activity remaining (p38g MAPK): 36%
- TAK1 % activity remaining (TAK1): 18%
- p38a MAPK % activity remaining (p38a MAPK): 85%
- FGF-R1 % activity remaining (FGF-R1): 7%
- MEKK1 % activity remaining (MEKK1): 66%
- PKBa % activity remaining (PKBa): 99%
- MARK4 % activity remaining (MARK4): 25%
- PKD1 % activity remaining (PKD1): 97%
- DYRK3 % activity remaining (DYRK3): 30%
- JNK2 % activity remaining (JNK2): 48%

Compound: Cc1nn(C)cc1-c1nc2c(-c3cnn(Cc4ccccc4)c3)c(Cl)cnc2[nH]1 [Compound 7a]
- IGF-1R % activity remaining (IGF-1R): 10%
- CHK1 % activity remaining (CHK1): 68%
- GCK % activity remaining (GCK): 22%
- EF2K % activity remaining (EF2K): 94%
- HIPK2 % activity remaining (HIPK2): 6%
- MARK1 % activity remaining (MARK1): 31%
- NEK6 % activity remaining (NEK6): 64%
- HIPK1 % activity remaining (HIPK1): 3%
- CSK % activity remaining (CSK): 59%
- RIPK2 % activity remaining (RIPK2): 40%
- Src % activity remaining (Src): 9%
- PKBb % activity remaining (PKBb): 62%
- PKA % activity remaining (PKA): 72%
- CHK2 % activity remaining (CHK2): 26%
- AMPK % activity remaining (AMPK): 50%
- YES1 % activity remaining (YES1): 12%
- MLK1 inhibition (MLK1): greater than 80%
- MLK1 % activity remaining (MLK1): 3%
- MAPKAP-K2 % activity remaining (MAPKAP-K2): 84%
- S6K1 % activity remaining (S6K1): 18%
- MST2 % activity remaining (MST2): 60%
- NUAK1 % activity remaining (NUAK1): 1%
- SmMLCK % activity remaining (SmMLCK): 51%
- PAK5 % activity remaining (PAK5): 36%
- JAK2 inhibition (JAK2): greater than 80%
- JAK2 % activity remaining (JAK2): 2%
- PIM2 % activity remaining (PIM2): 86%
- PRK2 % activity remaining (PRK2): 42%
- BRSK2 % activity remaining (BRSK2): 33%
- GSK3β inhibition (GSK3b; 1 μM): greater than 80%
- GSK3b % activity remaining (GSK3b): 2%
- IKKe % activity remaining (IKKe): 53%
- IRR % activity remaining (IRR): 20%
- p38g MAPK % activity remaining (p38g MAPK): 17%
- TAK1 % activity remaining (TAK1): 6%
- p38a MAPK % activity remaining (p38a MAPK): 90%
- FGF-R1 % activity remaining (FGF-R1): 5%
- MEKK1 % activity remaining (MEKK1): 74%
- PKBa % activity remaining (PKBa): 70%
- MARK4 % activity remaining (MARK4): 37%
- PKD1 % activity remaining (PKD1): 76%
- DYRK3 % activity remaining (DYRK3): 25%
- JNK2 % activity remaining (JNK2): 17%
